Several values for one entry are separate records, joined by “and”; a condition that tells them apart may be missing. Equal entries are not always repeated. Where two headings read alike, the source gives them in different places.

The values below come from patent US20090076029A1 (Palatin Technologies, Inc., priority 2007, published 2009).

Assay [1] concerns T1, hMC4-R.
T1 construct: expressed in transfected cells; host or cells: HEK-293
Description: cAMP functional assay in HEK-293 cells expressing MC4-R (agonist, neutral antagonist/Schild). Particulars: for intrinsic activity at MC4-R: NDP-α-MSH maximal stimulation = 1.0; for functional status at MC4-R: mostly at 1 μM. It is filed as cell-based, human. The protocol:
General method for EC50 determination in functional activity assay. Functional evaluation of compounds at melanocortin receptors was performed by measuring the accumulation of intracellular cAMP in HEK-293 cells expressing hMC3-R, hMC4-R or hMC5-R, and in B-16 mouse melanoma cells expressing MC1-R. Cells suspended in Earle's Balanced Salt Solution containing 10 mM HEPES (pH 7.5), 5 mM MgCl2, 1 mM glutamine, 0.1% albumin and 0.6 mM 3-isobutyl-1-methyl-xanthine, a phosphodiesterase inhibitor, were plated in 96 well plates at a density of 0.5×10^5 cells per well. Cells were incubated with the test compounds in the presence or absence of α-MSH for 1 hour at 37° C. cAMP levels in the cell lysates were measured using an EIA kit (Amersham). Data analysis and EC50 values were determined using nonlinear regression analysis with Prism Graph-Pad software.
Functional status. The agonist/antagonist status with respect to MC1-R, MC-3R, MC4-R and MC5-R of certain compounds of the invention was determined.
Assay for agonist. Evaluation of the molecules to elicit a functional response in HEK-293 cells expressing MC4-R was accomplished by measuring the accumulation of intracellular cAMP following treatment. Confluent HEK-293 cells expressing MC4-R were detached by enzyme free cell suspension buffer. Cells were suspended in Earle's Balanced Salt Solution containing 10 mM HEPES (pH 7.5), 1 mM MgCl2, 1 mM glutamine, 0.5% albumin and 0.3 mM 3-isobutyl-1-methyl-xanthine (IBMX), a phosphodiesterase inhibitor. The cells were plated in 96 well plates at a density of 0.5×10^5 cells per well and pre-incubated for 30 minutes. The cells were then challenged with the test compounds dissolved in DMSO at a concentration range of 0.05-5000 nM in a total assay volume of 200 μL for 1 hour at 37° C. The concentration of DMSO was always held at 1% in the assay mixture. NDP-α-MSH was used as the reference agonist. At the end of the incubation period the cells were disrupted by the addition of 50 μL of lysis buffer from a cAMP EIA kit (Amersham). Complete rupture of the cells was obtained by pipetting the cells multiple times. cAMP levels in the cell lysates were measured after appropriate dilution using the EIA kit (Amersham) method. Data analysis and EC50 values were determined by using nonlinear regression analysis with Prism Graph-Pad software. […] FIG. 1 illustrates typical results, showing the stimulation of cAMP using the compound of Example 11 in HEK-293/MC4-R cells with comparison to NDP-α-MSH.
Assay for Neutral Antagonist. Compounds with a high affinity for binding to MC4-R membranes but with less potency in terms of cAMP accumulation (EC50>1000 nM) and low response ratio (<0.1) were analyzed for their ability to antagonize the stimulatory effect of the agonist NDP-α-MSH. These studies were carried out in HEK-293 cells expressing MC4-R. Cells were incubated with the compounds in the presence of the agonist NDP-α-MSH and the extent of antagonism was measured by the decrease in intracellular cAMP concentrations. Screening the compounds for antagonist activity was performed at a single concentration of NDP-α-MSH (1.0 nM) over a compound concentration range of 0.5-5000 nM.
Experimental details were similar to the analysis for agonistic activity described above. Briefly, cells were pre-incubated for 30 minutes with the test compounds at concentrations between 0.5 nM and 5000 nM. The cells were then stimulated with NDP-α-MSH at a concentration of 1 nM for 1 hour. For Schild's analysis, the interactions were studied using at least 3 concentrations of the compounds, separated by a log unit, over a full range of the agonist (0.005-5000 nM). cAMP levels were measured in the cell lysates after appropriate dilution. Nonlinear regression analysis with Prism Graph-Pad software was used for Schild analysis and to obtain EC50 values. pA2 values were derived from the Schild plot of the data.

Assay [2] has as its target T2, MC1-R.
T2 construct: other: 1 μM compound
Description: Competitive inhibition assay using [I125]-NDP-α-MSH, MC1-R membranes. The conditions noted are these: for Inhibition at 1 μM (NDP-α-MSH) MC1-R: 1 μM compound. The class given is binding, mouse. The protocol:
(§1) Competitive inhibition assay using [1125]-NDP-α-MSH. A competitive inhibition binding assay was conducted using membranes prepared from HEK-293 cells transfected to express hMC3-R, hMC4-R or hMC5-R, and from B-16 mouse melanoma cells (containing MC1-R) using 0.2 to 0.4 nM [I^125]-NDP-α-MSH (New England Nuclear) in 50 mM HEPES buffer containing 1 mM MgCl2, 2 mM CaCl2, and 5 mM KCl, at pH 7.2. In certain experiments, HEK-293 cells transfected to express hMC1-R were also employed. The assay tube also contained a chosen concentration of the test compound of this invention, typically a 1 μM concentration, for determining inhibition of the binding of [^1125]-NDP-α-MSH to its receptor. Non-specific binding was measured by inhibition of binding of [I^125]-NDP-α-MSH in the assay with the presence of 1 μM α-MSH.
(§2) The assay mixture was incubated for 90 minutes at room temperature, then filtered and the membranes washed three times with ice cold buffer. The filter was dried and counted in a gamma counter for remaining radioactivity bound to the membranes. 100% specific binding was defined as the difference in radioactivity (cpm) bound to cell membranes in the absence and presence of 1 μM α-MSH. The cpm obtained in presence of test compounds were normalized with respect to 100% specific binding to determine the percent inhibition of [125]-NDP-α-MSH binding. Each assay was conducted in triplicate and the actual mean values are described, with results less than 0% reported as 0%.

Assay [3] deals with T1, hMC4-R. As to the kind of experiment: Competitive inhibition assay using [I125]-NDP-α-MSH, hMC4-R membranes. The class given is binding, human. The conditions noted are these: for attenuation of binding of α-MSH and AgRP to MC4-R: both ligands (NDP-α-MSH and AgRP), summary. As for the experimental part:
as §1, §2

Assay [4] concerns T1, hMC4-R. It is filed as binding, human. Particulars: for Inhibition at 1 μM (AgRP) MC4-R: 1 μM compound. The protocol: Competitive binding assay using [I^125]-AgRP (83-132). Competitive binding studies using [I^125]-AgRP (83-132) were carried out on membranes isolated from cells expressing hMC4-R. The assay was performed in 96 well GF/B Millipore multiscreen filtration plates (MAFB NOB10) pre-coated with 0.5% bovine serum albumin (Fraction V). The assay mixture contained 25 mM HEPES buffer (pH 7.5) with 100 mM NaCl, 2 mM CaCl2, 2 mM MgCl2, 0.3 mM 1,10-phenanthroline, 0.5% bovine serum albumin, cell membranes, radioligand [I^125]-AgRP (83-132) (NEN), and increasing concentrations of compounds in a total volume of 200 μL. Binding was measured at radioligand concentrations of 0.2 nM. After incubating for 1 hour at 37° C., the reaction mixture was filtered and washed with an assay buffer containing 500 mM NaCl. The dried discs were punched out from the plate and counted on a gamma counter. Care was taken to limit the specific binding of the ligand to an amount not exceeding 10% of the counts added to the reaction mixture. Data were analyzed using the Prism Graph-Pad curve fitting software.

Assay [5] concerns the target T3, hMC3-R.
T3 construct: expressed in transfected cells; host or cells: HEK-293
As to the kind of experiment: Competitive inhibition assay using [I125]-NDP-α-MSH, hMC3-R membranes. It is filed as binding, human. The conditions noted are these: read-out: Ki (nM) (NDP-α-MSH) MC3-R. The protocol:
as §1, §2

Setting [6] is: cAMP assay, read-out: EC50 (nM) at MC4-R.
[7] abbreviates: MC4-R membranes, Table 1, read-out: Ki (nM) I125-AgRP.

As usually defined, the EC50 is the concentration that produces a half-maximal response. A word on the Ki: it is a measure of affinity in units of concentration, obtained from inhibition or displacement. The term Inhibition denotes the percentage by which the read-out fell short of the control. For the compound `NCCCC[C@H]1C(=O)N(CCc2ccc3ccccc3c2)CCN1C(=O)[C@@H](Cc1ccc(Cl)cc1Cl)NC(=O)[C@@H]1CC[C@H](c2ccccc2)N1` [Example 19, (2S,5R)-5-Phenyl-pyrrolidine-2-carboxylic acid [(R)-2-[(S)-2-(4-amino-butyl)-4-(2-naphthalen-2-yl-ethyl)-3-oxo-piperazin-1-yl]-1-(2,4-dichloro-benzyl)-2-oxo-ethyl]-amide], the “functional status (pAg, Ag, Antag, Inactive)” value in assay [1] (MC4-R, Table 1) is “pAg (“pAg” means partial agonist)”. Besides, the EC50 amounted to 959 nM in assay [1] (MC4-R, Table 1, read-out: EC50) and 959 nM in assay [1] (setting [6]). Also, the “intrinsic activity at MC4-R” value in assay [1] was 0.19 and 0.2. The Ki in assay [2] worked out at 1370 nM; in assay [4] (setting [7]) it was 63 nM; in assay [4] (read-out: Ki (nM) (AgRP) MC4-R) it was 63 nM; in assay [5], 855 nM. Also, the “Inhibition at 1 μM (NDP-α-MSH) MC1-R” value in assay [2] was found to be 0%. The “attenuation of binding of α-MSH and AgRP to MC4-R” value in assay [3] is “attenuate the binding of both α-MSH and AgRP to MC4-R”. Besides, the “Inhibition at 1 μM (AgRP) MC4-R” value in assay [4] amounted to 95%.
`N=C(N)NCCC[C@H]1C(=O)N2C(CC[C@@H]2COc2ccc3ccccc3c2)N1C(=O)[C@@H](Cc1ccc(Cl)cc1Cl)NC(=O)[C@@H]1CC[C@H](c2ccccc2)N1` (stereo partly drawn) [Example 20, (2S,5R)-5-Phenyl-pyrrolidine-2-carboxylic acid {(R)-1-(2,4-dichloro-benzyl)-2-[(2S,5R)-2-(3-guanidino-propyl)-5-(naphthalen-2-yloxymethyl)-3-oxo-hexahydro-pyrrolo[1,2-a]imidazol-1-yl]-2-oxo-ethyl}-amide]: in assay [1] (MC4-R, Table 1), the “functional status (pAg, Ag, Antag, Inactive)” value is “Inactive”. In addition, the EC50 in assay [1] (MC4-R, Table 1, read-out: EC50) is above 1000 nM. Besides, the “functional status at MC4-R” value in assay [1] (cAMP assay) is “inactive”. In addition, the Ki in assay [2] came out at 1040 nM; in assay [4] (setting [7]), 23 nM; in assay [4] (read-out: Ki (nM) (AgRP) MC4-R), 23 nM; in assay [5], 312 nM. The “Inhibition at 1 μM (NDP-α-MSH) MC1-R” value in assay [2] was found to be 16%. Besides, the “Inhibition at 1 μM (AgRP) MC4-R” value in assay [4] was found to be 99%.
Consider `NCCCC[C@H]1C(=O)N(CCc2ccc3ccccc3c2)CCN1C(=O)[C@@H](Cc1ccc(Cl)cc1Cl)NC(=O)c1ccc(Oc2ccccc2)cc1` [Example 22, N—[(R)-2-[(S)-2-(4-Amino-butyl)-4-(2-naphthalen-2-yl-ethyl)-3-oxo-piperazin-1-yl]-1-(2,4-dichloro-benzyl)-2-oxo-ethyl]-4-phenoxy-benzamide], for which the “functional status (pAg, Ag, Antag, Inactive)” value in assay [1] (MC4-R, Table 1) is given as “Inactive”. In assay [1] (MC4-R, Table 1, read-out: EC50), the EC50 was above 1000 nM. Moreover, the “functional status at MC4-R” value in assay [1] (cAMP assay) is “inactive”. In assay [4], the “Inhibition at 1 μM (AgRP) MC4-R” value turned out to be 100%. The Ki in assay [4] (setting [7]) and in assay [4] (read-out: Ki (nM) (AgRP) MC4-R) was 0.9 nM each time.
With `Cc1cc(Cl)ccc1C[C@@H](N)C(=O)N1C[C@@H](C)N(CCc2ccc3ccccc3c2)C[C@@H]1CCCNC(=N)N` [Example 27, N-{3-[1-[2(R)-Amino-3-(2-methyl, 4-chloro-phenyl)-propionyl]-5(R)-methyl-4-(2-naphthaen-2-yl-ethy)-piperazin-2(S)-yl]-propyl}-guanidine], in assay [1] (MC4-R, Table 1), the “functional status (pAg, Ag, Antag, Inactive)” value is “pAg (“pAg” means partial agonist)”. For the same compound, the EC50 in assay [1] (MC4-R, Table 1, read-out: EC50) was 214 nM; in assay [1] (setting [6]) it was 214 nM. In addition, the “intrinsic activity at MC4-R” value in assay [1] is 0.3. Further, the “functional status at MC4-R” value in assay [1] (cAMP assay) was “partial agonist (intrinsic activity between 0.1 (10%) and 0.7 (70%) is classified as a partial agonist)”. Moreover, in assay [3] (MC4-R membranes, Table 1, read-out: Ki (nM) I125-NPD-α-MSH), the inhibitory constant (Ki) came out at 29 nM.
`C[C@@H]1CN(C(=O)[C@H](N)Cc2ccc(Cl)cc2)[C@@H](CCCNC(=N)N)CN1CCc1ccc2ccccc2c1` [Example 29, N-{3-[1-[2(R)-Amino-3-(4-CHLORO-phenyl)-propionyl]-5(R)-methyl-4-(2-naphthalen-2-yl-ethyl)-piperazin-2(S)-yl]-propyl}-guanidine]: in assay [1] (MC4-R, Table 1), the “functional status (pAg, Ag, Antag, Inactive)” value is given as “Ag”. The EC50 stood at 252 nM in assay [1] (MC4-R, Table 1, read-out: EC50) and 252 nM in assay [1] (setting [6]). In addition, the “intrinsic activity at MC4-R” value in assay [1] amounted to 0.8. Further, the “functional status at MC4-R” value in assay [1] (cAMP assay) is given as “agonist (intrinsic activity of 0.7 (70%) or higher is classified as an agonist)”. The “attenuation of binding of α-MSH and AgRP to MC4-R” value in assay [3] was “attenuate the binding of both α-MSH and AgRP to MC4-R”. In assay [4], the “Inhibition at 1 μM (AgRP) MC4-R” value turned out to be 97%. For the same compound, the Ki in assay [4] (read-out: Ki (nM) (AgRP) MC4-R) came to 15 nM.
“NH2—(CH2)6—C(═O)-Ser(Bzl)-D-Phe(4-Cl)-Arg-Trp-Ala-NH2 [Example 16]”: the EC50 was above 1000 nM in assay [1] (MC4-R, Table 1 in μM, read-out: EC50) and above 1000 nM in assay [1] (cAMP assay, printed in μm, read-out: EC50 at MC4-R). Further, the “functional status at MC4-R” value in assay [1] (cAMP assay) is “functionally inactive”. For the same compound, the Ki was found to be 142 nM in assay [2] and 35 nM in assay [5]. Further, in assay [2], the “Inhibition at 1 μM (NDP-α-MSH) MC1-R” value was determined as 60%.
